From the supplement of paper PMC10307832

Experiments:
Assay in all cases: relative viability (nuclei count vs DMSO), 5 days (fraction); higher = more cells survive
[1] = compound: C1=CC2=NC=CN=C2C=C1/C=C/3\C(=O)NC(=O)S3 + Cc1nc(Nc2ncc(C(=O)Nc3c(C)cccc3Cl)s2)cc(N2CCN(CCO)CC2)n1 [Dasatinib] (partner 0.075 µM)
Summary of the method: (§1)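 Medians of duplicate plates are given as relative viability. That measure is the nuclei count in treated wells divided by the count in vehicle wells. Counts were taken on 4× images of lung cancer cell lines in 1536-well plates, 5 days after pin-tool dosing the day after seeding with one drug alone or a fixed anchor-drug dose plus five library-drug doses (not always all listed) in √10 steps.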

BGJ398 + Foretinib = compound: CCN1CCN(c2ccc(Nc3cc(N(C)C(=O)Nc4c(Cl)c(OC)cc(OC)c4Cl)ncn3)cc2)CC1 [BGJ398] + COc1cc2c(Oc3ccc(NC(=O)C4(C(=O)Nc5ccc(F)cc5)CC4)cc3F)ccnc2cc1OCCCN1CCOCC1 [Foretinib] (partner 0.25 µM)
Summary of the method: as §1

BGJ398 + Trametinib = compound: CCN1CCN(c2ccc(Nc3cc(N(C)C(=O)Nc4c(Cl)c(OC)cc(OC)c4Cl)ncn3)cc2)CC1 [BGJ398] + CC(=O)Nc1cccc(-n2c(=O)n(C3CC3)c(=O)c3c(Nc4ccc(I)cc4F)n(C)c(=O)c(C)c32)c1 [Trametinib] (partner 0.02 µM)
Summary of the method: as §1

[2] = compound: C1=CC2=NC=CN=C2C=C1/C=C/3\C(=O)NC(=O)S3 + CC(C)C[C@H](NC(=O)[C@H](Cc1ccccc1)NC(=O)c1cnccn1)B(O)O [Bortezomib] (partner 0.002 µM)
Summary of the method: as §1

Cell Line	relative viability ([1]; first compound 0.02 µM)	relative viability ([1]; first compound 0.06325 µM)	relative viability ([1]; first compound 0.2 µM)	relative viability ([1]; first compound 0.6325 µM)	relative viability ([1]; first compound 2 µM)	relative viability (BGJ398 + Foretinib; first compound 0.01 µM)	relative viability (BGJ398 + Foretinib; first compound 0.03162 µM)	relative viability (BGJ398 + Foretinib; first compound 0.1 µM)	relative viability (BGJ398 + Foretinib; first compound 0.3162 µM)	relative viability (BGJ398 + Foretinib; first compound 1 µM)	relative viability (BGJ398 + Trametinib; first compound 0.01 µM)	relative viability (BGJ398 + Trametinib; first compound 0.03162 µM)	relative viability (BGJ398 + Trametinib; first compound 0.1 µM)	relative viability (BGJ398 + Trametinib; first compound 0.3162 µM)	relative viability (BGJ398 + Trametinib; first compound 1 µM)	relative viability ([2]; first compound 0.02 µM)	relative viability ([2]; first compound 0.06325 µM)	relative viability ([2]; first compound 0.2 µM)	relative viability ([2]; first compound 0.6325 µM)	relative viability ([2]; first compound 2 µM)
NCI-H1437	0.656	0.353	0.406	0.353	0.174	1.42	1.29	1.27	1.25	1.28	0.59	0.508	0.559	0.519	0.393	0.475	0.647	0.564	0.475	0.408
LU99A	0.576	0.922	0.462	0.508	0.287	0.761	0.804	0.855	0.897	0.756	0.461	0.487	0.498	0.401	0.401	1.09	1.32	1.41	1.07	0.747
HCC-827	0.338	0.194	0.267	0.301	0.266	0.926		1.02	1	1.13	0.482		0.542	0.399	0.623	0.981	0.912	1	1.05	0.973
HCC-366	0.613		0.645	0.552	0.0998	0.924	0.883	0.944	0.89	1.08	0.309	0.375	0.387	0.311	0.325	1	1.02	1.05	1.06	1.01
BEN	0.362	0.35	0.297	0.352	0.252	0.722	0.866	0.568	0.395	0.453	0.84	1.02	1.03	0.899	0.952	0.803	0.982	0.904	0.566	0.705
NCI-H23	0.703	0.976	0.715	0.754	0.29	1.01	1.08	1.17	1.06	0.881	0.348	0.438	0.441	0.377	0.322	0.954	1.37	1.27	0.843	0.678
201T	0.543	0.619	0.583	0.556	0.28	1.18	1.1	1.05	0.958	1.02	0.817	0.696	0.688	0.643	0.693	0.979	1.1	1.1	1.08	1.03
NCI-H460	0.53	0.782	0.477	0.362	0.0894	0.999	0.994	1.08	1.06	1.04	0.0671	0.131	0.209	0.13	0.0628	1.01	1.05	1.03	0.932	0.942
NCI-H661	1.03	1.12	0.935	0.748	0.722	0.889	1.06	1.14	0.932	0.982	0.479	0.599	0.642	0.516	0.63	0.925	0.614	0.812	0.751	0.95
HCC-15	0.665	0.644	0.687	0.55	0.42	0.978	1.1	1.04	1.13	1.07	0.331	0.401	0.378	0.433	0.393	1.01	0.995	1.04	0.99	0.966
LCLC-103H	0.427	0.571	0.474	0.461	0.214	0.79	0.765	0.755	0.746	0.541	0.703	0.623	0.65	0.642	0.535	1.08	1.05	1.06	1	0.931
NCI-H441	0.797	0.526	0.7	0.573	0.281	0.997	0.902	0.893	0.998	1.11		0.484	0.52	0.429	0.436	0.272	0.289		0.403	0.494
EPLC-272H	0.43	0.462	0.421	0.294	0.153	0.794	0.534	0.84	0.724	0.74	0.302	0.345	0.282	0.194	0.198	0.8	1.05	0.898	0.857	0.808
